{"source": "patent US20080226596A1", "about": "“Therapeutic compositions and methods useful in treating hepatitis” (priority 2006, published 2008)", "key": {"PTP1B": {"target": "T1, PTP1B (Homo sapiens, UniProt P18031)", "T1 construct": "GST; purchased Upstate Biotechnology Inc. (Lake Placid, N.Y.)", "T1 sequence (P18031 whole entry, species assumed)": "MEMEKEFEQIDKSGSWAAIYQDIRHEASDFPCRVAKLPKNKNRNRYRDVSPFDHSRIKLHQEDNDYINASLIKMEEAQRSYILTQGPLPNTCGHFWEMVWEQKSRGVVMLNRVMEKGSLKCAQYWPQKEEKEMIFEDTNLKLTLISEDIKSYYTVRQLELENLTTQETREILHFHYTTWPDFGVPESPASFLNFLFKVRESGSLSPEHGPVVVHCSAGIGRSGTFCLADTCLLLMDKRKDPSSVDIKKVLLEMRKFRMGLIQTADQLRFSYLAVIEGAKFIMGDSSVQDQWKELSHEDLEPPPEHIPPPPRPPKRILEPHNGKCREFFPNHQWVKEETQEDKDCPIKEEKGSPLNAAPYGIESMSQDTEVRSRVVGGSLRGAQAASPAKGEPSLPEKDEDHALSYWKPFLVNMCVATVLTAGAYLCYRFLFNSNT", "assay": "In vitro PTPase assay, GST/PTP1B", "type": "biochemical", "details": "compared with levamisole, pentamidine, ketoconazole", "protocol": "In vitro PTPase activities were measured using the commercial protein tyrosine phosphatase assay kit (Upstate Biotechnology, Inc. (“UBI”)) following established procedure known to one of skill in the art. This assay measures the in vitro dephosphorylation of a synthetic phosphotyrosine peptide of the sequence Arg-Arg-Leu-Ile-Glu-Asp-Ala-Gle-Tyr-Ala-Ala-Arg-Gly, wherein the tyrosine is phosphorylated (SEQ ID NO: 3). Briefly, 0.01 µg of GST/PTPase fusion proteins was incubated in 50 μL of Tris buffer (10 mM Tris, pH 7.4) containing different concentrations of inhibitors or chemicals (0-1,000 μg/ml) at 22° C. for 10 minutes, followed by addition of 0.2 mM of the phosphotyrosine peptide and incubation at 22° C. for 18 hours. 100 μL of Malachite Green solution was added and incubated for 5 minutes, and the absorbance at 660 nm was measured after 5 minutes.\nIn vitro PTPase assays were used to determine the effects of levamisole (Sigma), pentamidine (American Pharmaceutical Partners, Inc.), and ketoconazole (Sigma) on recombinant PTPases, following established procedures (Pathak et al., J. Imumol. 167, 3391 (2001); Pathak et al., Leukemia 16, 2285 (2002), Yi et al., J. Immunol. 169, 5978 (2002)) using a synthetic phosphotyrosine peptide or DiFMUP as the substrate as detailed above in section I.A.2."}, "SK-N-SH cells": {"test_system": "SK-N-SH cells", "assay": "SK-N-SH neuroblastoma cell growth, MTT assay", "type": "cell-based, human", "details": "100 μg/ml, day 6", "protocol": "(§1) NIH3T3 (Yi, et al., Blood 85, 87 (1995)), WM9 (Forsberg, et al., Proc. Nat. Acad Sci. USA 90, 393 (1993)), DU145 (Mickey, et al., Cancer Res. 37, 4049 (1977)), LoVo (Drewinko, et al., Cancer Res. 36, 467 (1976)), HEY (Buick, et al., Cancer Res. 45, 3668 (1985)), U251 (Yoshida, et al., Cancer 50, 410 (1982)), A549 (Giard, et al., J. Natl. Cancer Inst. 51, 1417 (1973)) and SK-N-SH (Helson, et al., Cancer Res. 35, 2594 (1975)) cell lines have been described and were cultured in RPMI 1640 supplemented with 10% fetal calf serum (FCS). For measurement of sodium stibogluconate effects on cell growth in vitro, cells were cultured in the absence (−) or presence (+) of various amounts of sodium stibogluconate for 6 days with viable cells quantified by MTT assays (Mosmann, J. Immunol. Methods 65, 55 (1983)). Percentages of growth inhibition by sodium stibogluconate were calculated (.+−.x"}, "[1]": {"test_system": "Renca tumor-infiltrating immune cells", "assay": "Renca tumor-infiltrating immune cells, immunohistochemistry", "design": "species or system Balb/c mice", "details": "mouse, in vivo", "protocol": "Major internal organs and Renca tumors harvested from mice were fixed in 10% formalin or snap frozen in liquid nitrogen. H & E-stained tissue sections of the fixed samples were prepared and evaluated by microscopy as described previously (Yi, T., M. K. Pathak, D. J. Lindner, M. E. Ketterer, C. Farver, and E. C. Borden. 2002. Anticancer activity of sodium stibogluconate in synergy with IFNs. J Immunol 169:5978). Preparation of frozen tissue sections and immunohistochemistry were performed following established procedures (Joliat, M. J., P. A. Lang, B. L. Lyons, L. Burzenski, M. A. Lynes, T. Yi, J. P. Sundberg, and L. D. Shultz. 2002. Absence of CD5 dramatically reduces progression of pulmonary inflammatory lesions in SHP-1 protein-tyrosine phosphatase-deficient ‘viable motheaten’ mice. J Autoimmun 18:105). The antibodies used for immunohistochemistry were anti-CD4 (rat mAb, clone GK1.5, BD Biosciences, Franklin Lakes, N.J.), anti-CD8 (rat mAb, clone 53-6.7.5, BD Biosciences, Franklin Lakes, N.J.), anti-F4/80 (rat mAb, clone A3-1, Serotec, Oxford, UK) and anti-Asialo GM1 (rabbit polyclonal, Cedarlane, Hornby, Canada). […] Tissue sections of 2 mice/group were evaluated. The number of immune cells was semi-quantified based on the following scheme: […], 0-1 positive cells/40×field; +, 2-5 positive cells/40×field; ++, 6-10 positive cells/40×field, etc."}, "[2]": {"test_system": "Jak2/Stat5 tyrosine phosphorylation", "assay": "IL-3-induced Jak2/Stat5 tyrosine phosphorylation in Baf3 cells", "type": "cell-based, murine", "protocol": "For induction of cellular protein phosphorylation by sodium stibogluconate or pervanadate, Baf3 cells were incubated in 0.1% FCS-RPMI 1640 medium at 37° C. for 16 hours. The cells were then washed twice in RPMI 1640 medium and incubated with sodium stibogluconate or pervanandate (0.1 mM) for various times prior to termination by lysing cells in cold lysis buffer (50 mM Tris, pH 7.4; 150 mM NaCl; 0.2 mM Na3VO4; 20 mm NaF; 1% Nonidet P-40; 2 mM PMSF; 20 µg/ml of Aprotinin and 1 mM of sodium molybdic acid). To determine the effect of sodium stibogluconate or potassium antimonyl tartrate on IL-3-induced Jak/Stat phosphorylation, Baf3 cells were deprived of the growth factor for 16 hours in 0.1% FCS RPMI 1640 medium and then incubated with or without sodium stibogluconate or potassium antimonyl tartrate for 10 minutes. IL-3 was next added to the cell suspension and incubated for various times. The Cells were then harvested and lysed in cold lysis buffer at 4° C. for 45 minutes. Total cell lysates (TCL) were separated in SDS-PAGE gels, blotted onto nitrocellulose membrane (Schleicher & Schuell), probed with specific antibodies and detected using an enhanced chemiluminescence kit (ECL, Amersham, Arlington Heights, Ill.)."}, "C42 cells": {"test_system": "C42 cells", "assay": "C42 prostate cancer cell growth", "type": "cell-based, human", "protocol": "(§2) For cell proliferation assays, cells were grown in 10% FCS culture medium containing various amounts of IFNs and/or sodium stibogluconate in 96 well plates and cultured at 37° C. for 3 or 6 days as indicated. The numbers of viable cells in proliferation assays were determined by MTT assays as described in Phatak et al., J. Immunol. 167, 3391 (2001)."}, "DU145 cells": {"test_system": "DU145 cells", "assay": "DU145 prostate cancer cell growth, MTT assay", "type": "cell-based, human", "details": "single agent, 50-100 μg/ml, day 6", "protocol": "as §2, §1"}}, "note": "Entries after “also recorded” stand apart in the source; their conditions may differ."}
{"molecule": "O.O.O.O.O.O.O.O.O.O=C([O-])[C@@H]1[O][Sb]2([O-])([O][Sb]34([OH])[O][C@H]([C@H](O)CO)[C@H]([O]3)[C@H](C(=O)[O-])[O]4)[O][C@H]([C@H](O)CO)[C@@H]1[O]2.[Na+].[Na+].[Na+]", "note": "[sodium stibogluconate]", "values": [{"measurement": "inhibition of PTP1B", "setting": "PTP1B", "result": "only modestly effective"}, {"measurement": "killing of SK-N-SH cells", "setting": "SK-N-SH cells", "result": "near-complete cell killing"}, {"measurement": "numbers of tumor-infiltrating T cells or NK cells", "setting": "[1]", "result": "little effect"}, {"measurement": "phosphotyrosine levels of Jak2 and Stat5 relative to cells without drug", "setting": "[2]; IL-3 stimulated, drug 10 minutes before, densitometry", "result": "about twice"}, {"measurement": "Jak2/Stat5 tyrosine phosphorylation by drug alone", "setting": "[2]; no IL-3, 37 C 16 hours", "result": "failed to induce Jak2/Stat5 tyrosine phosphorylation"}, {"measurement": "effect on C42 cells", "setting": "C42 cells", "result": "highly resistant"}, {"measurement": "killing of DU145 cells", "setting": "DU145 cells", "result": "killed all cells; also recorded: complete or near complete killing; also recorded: near-complete cell killing"}]}
